Measured values published in patent US6022868A, “Substituted azacyclic or azabicyclic compounds” (Novo Nordisk Als, priority 1995, dated 2000).

Experiments:
[1] = target: T1, nicotinic acetylcholine receptors (Rattus norvegicus, UniProt P09483+P12390); experiment: inhibition of specific binding of 3H-methylcarbamylcholine (3H-MCC) to rat cortical receptors; details: for IC50: rat cortical receptors, 3H-MCC 2 nM, 0° C., 60 min; for Oxo/MCC Ratio: selectivity for nicotinic (3H-MCC) over muscarinic (3H-Oxo) receptors, rat cortex
T1 construct: Fresh or frozen rat, brain tissue (hippocampus or cortex) was homogenized in assay buffer; from tissue; host or cells: rat brain tissue (hippocampus or cortex)
T1 sequence (P09483 31-630): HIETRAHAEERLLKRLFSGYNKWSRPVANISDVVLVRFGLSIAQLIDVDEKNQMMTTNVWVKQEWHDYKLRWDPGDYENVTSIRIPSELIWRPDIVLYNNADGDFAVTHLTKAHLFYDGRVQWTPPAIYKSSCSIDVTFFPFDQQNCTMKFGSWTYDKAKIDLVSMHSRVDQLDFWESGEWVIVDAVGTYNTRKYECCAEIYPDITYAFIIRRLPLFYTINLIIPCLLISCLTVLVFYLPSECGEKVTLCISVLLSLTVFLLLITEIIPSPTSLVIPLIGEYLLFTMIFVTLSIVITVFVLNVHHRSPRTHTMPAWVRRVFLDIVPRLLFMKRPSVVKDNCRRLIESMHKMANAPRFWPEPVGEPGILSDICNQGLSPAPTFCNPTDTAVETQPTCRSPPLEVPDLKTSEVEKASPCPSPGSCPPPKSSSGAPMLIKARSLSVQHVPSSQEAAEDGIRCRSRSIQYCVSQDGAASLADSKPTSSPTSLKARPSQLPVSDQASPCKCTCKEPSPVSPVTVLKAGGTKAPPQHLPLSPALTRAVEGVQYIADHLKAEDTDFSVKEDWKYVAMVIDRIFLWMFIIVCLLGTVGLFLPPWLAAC
T1 sequence (P12390 25-500): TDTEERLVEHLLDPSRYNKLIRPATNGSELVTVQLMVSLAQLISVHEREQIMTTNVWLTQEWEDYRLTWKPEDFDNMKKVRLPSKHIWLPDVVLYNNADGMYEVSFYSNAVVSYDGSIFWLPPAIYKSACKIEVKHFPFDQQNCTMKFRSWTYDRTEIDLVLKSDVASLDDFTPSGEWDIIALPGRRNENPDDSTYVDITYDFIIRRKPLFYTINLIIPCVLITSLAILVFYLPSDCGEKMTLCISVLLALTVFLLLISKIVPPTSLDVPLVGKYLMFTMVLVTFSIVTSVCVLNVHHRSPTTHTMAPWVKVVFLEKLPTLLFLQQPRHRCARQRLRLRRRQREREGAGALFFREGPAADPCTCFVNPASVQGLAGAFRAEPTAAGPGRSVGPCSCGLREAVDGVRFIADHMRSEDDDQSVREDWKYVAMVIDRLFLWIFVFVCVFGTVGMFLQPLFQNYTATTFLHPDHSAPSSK
From the text: The pharmacological properties of the compounds of the invention can be illustrated by determining their capability to inhibit the specific binding of ^3 H-methylcarbamylcholine (^3 H-MCC) (Abood and Grassi, Biochem. Pharmacol., Vol. 35, pp. 4199-4202, (1986)).
^3 H-MCC labels the nicotinic receptors in the CNS. The inhibitory effect on ^3 H-MCC binding reflects the affinity for nicotinic acetylcholine receptors.
Fresh or frozen rat, brain tissue (hippocampus or cortex) was homogenized in assay buffer (5OmM Tris--HCI, pH 7.4, 120 mM NaCI, 5 mM KCI, 2 mM CaCI21 1mM MgCI2) and centrifuged for 10 min. at 40.000×g.Pellets were subsequently reconstituted in assay buffer and an appropriate amount of tissue sample was mixed in tubes with ^3 H--methylcarbamylcholine (NEN, NET--951; final concentration 2 nM) and test drug. The tubes were incubated at 0° C. for 60 min. Unbound ligand was separated from bound ligand by vacuum filtration through GF/B filters presoaked in 0.5 % polyethylenimine. Filters were washed three times with 5 ml wash buffer (50mM Tris--HCI, pH 7.4) and transferred to vials. 4 ml scintillation fluid was added and the radioactivity was measured by scintillation counting. Unspecific binding was measured with 10 μM nicotine.
The IC50 values of the test compounds were determined by nonlinear regression analyses (GraphPad InPlot).
Table I illustrates the affinity of the compounds of the present invention for nicotinic and muscarinic receptors as determined by ^3 H-MCC and ^3 H-Oxo binding to rat cortical receptors. The compounds, however, show selective affinity for nicotinic receptors as compared to muscarinic receptors, i.e OXO/MCC >1.

[2] = target: muscarinic acetylcholine receptors; experiment: inhibition of specific binding of 3H-Oxotremorine-M (3H-Oxo) to rat cortical receptors; details: 3H-Oxo 1.0 nM, 25° C., 30 min
From the text: Furthermore, the pharmacological properties of the compounds of the invention can also be illustrated by determining their capability to inhibit the specific binding of ^3 H-Oxotremorine--M (^3 H-Oxo). Birdsdall N.J.M., Hulme E.C., and Burgen A.S.V. (1980). "The Character of Muscarinic Receptors in Different Regions of the Rat Brain". Proc. Roy. Soc. London (Series B) 207,1.
^3 H-Oxo labels muscarinic receptor in the CNS (with a preference for agonist domains of the receptors). Three different sites are labelled by ^3 H-Oxo. […] Using the present experimental conditions only the high and medium affinity sites are determined.
The inhibitory effects of compounds on ^3 H--Oxo binding reflects the affinity for muscarinic acetylcholine receptors.
All preparations are performed at 0-4° C. unless otherwise indicated. […]
The final pellet is homogenized in 20 mM Hepes pH: 7.4 (100 ml per g of original tissue) and used for binding assay. […] Non-specific binding is determined in triplicate using arecoline (1 ug/ml, final concentration) as the test substance. […] The amount of radioactivity on the filters are determined by conventional liquid scintillation counting. […]
Table I illustrates the affinity of the compounds of the present invention for nicotinic and muscarinic receptors as determined by ^3 H-MCC and ^3 H-Oxo binding to rat cortical receptors. […]

[3] = in vivo; cited from earlier work
[4] = system: dopamine release in the nucleus accumbens; details: cited from earlier work
[5] = system: dopaminergic effects in various behavioral models; details: cited from earlier work
[6] = system: substantia nigra; details: chronic nicotine; cited from earlier work

SMILES | IC50 [1] | Oxo/MCC Ratio [1] | IC50 [2] | effect in Tourette's syndrome [3] | stimulation of dopamine release, nucleus accumbens versus striatum [4] | potentiation of dopaminergic effects [5] | protection against cell loss in the substantia nigra caused by lesioning [6]
Cc1cc(/C=C2/CCCN(C)C2)on1.O=C(O)C(=O)O [Compound 1, (Z)-3-(3-Methyl-5-isoxazolyl)methylene-1-methylpiperidine oxalate] | 3.05 µM | 1.7 | 5.15 µM | – | – | – | –
Cc1cc(/C=C2/CCCNC2)on1.Cl [Compound 5, (Z)-3-(3-Methyl-5-isoxazolyl)methylenepiperidine hydrochloride] | 0.1 µM | 100 | 10 µM | – | – | – | –
CN1CCCC1c1cccnc1 (stereo not shown) [nicotine] | – | – | – | beneficial effects in Tourette's syndrome | stimulates dopamine release in the nucleus accumbens more potently than in striatum | will potentiate dopaminergic effects in various behavioral models | may protect against cell loss in the substantia nigra caused by lesioning
